Assay type in all cases: cell-based
One assay deals with BaF3_EGFRWT cells. Briefly: Cell growth inhibition assay, BaF3_EGFRWT. The settings on record: 80 ng/mL recombinant human EGF, 3 days treatment, CellTiterGlo 2.0, read-out: EGFR WT IC50 (nM), cell growth inhibition.
In a further assay the test system is BaF3_HER2WT cells. In words: Cell growth inhibition assay, BaF3_HER2WT. As to conditions: 3 days treatment, CellTiterGlo 2.0, read-out: HER2 WT IC50 (nM), cell growth inhibition. A general note: Cellular ATP, detected with luciferase, serves as a proxy for viable cell number.
In a further assay the test system is BaF3_HER2YVMA cells. Briefly: Cell growth inhibition assay, BaF3_HER2YVMA. As to conditions: BaF3_HER2YVMA cells, 3 days treatment, CellTiterGlo 2.0, read-out: HER2-YVMA IC50 (nM), cell growth inhibition.

This is an account of results in patent publication US20250276983A1, “COMPOUNDS AND METHODS FOR MODULATING HER2” (IAMBIC THERAPEUTICS, INC., priority 2022, published 2025).

Structures are written as SMILES. Read-outs that look alike come from different tables or passages of the source.

Broadly, the IC50 is the concentration that inhibits the measured activity by half. On to `Cc1cc(Nc2ncnn3ccc(N4CC(NC(=O)/C=C/CN5CCOCC5)C4)c23)ccc1Oc1ccn2ncnc2c1` [Example 81, (E)-N-(1-(4-((4-([1,2,4]triazolo[1,5-a]pyridin-7-yloxy)-3-methylphenyl)amino)pyrrolo[2,1-f][1,2,4]triazin-5-yl)azetidin-3-yl)-4-morpholinobut-2-enamide], for which the figures for the IC50 in the assay on BaF3_EGFRWT cells (72 h), in the assay on BaF3_HER2WT cells (72 h) and in the assay with BaF3_HER2YVMA cells (72 h) were 1500 to 5000 nM, 200 to 500 nM and 1500 to 5000 nM, respectively.

As to `Cc1cc(Nc2ncnn3ccc(C4CN(C(=O)/C=C/CN5CCC(F)CC5)C4)c23)ccc1Oc1ccn2ncnc2c1` [Example 62, (E)-1-(3-(4-((4-([1,2,4]triazolo[1,5-a]pyridin-7-yloxy)-3-methylphenyl)amino)pyrrolo[2,1-f][1,2,4]triazin-5-yl)azetidin-1-yl)-4-(4-fluoropiperidin-1-yl)but-2-en-1-one], the IC50 was 1500 to 5000 nM in the assay on BaF3_EGFRWT cells (72 h), < 200 nM with BaF3_HER2WT cells (72 h) and < 200 nM in the assay on BaF3_HER2YVMA cells (72 h).

For `Cc1cc(Nc2ncnn3ccc(C4CC5CCC(C4)N5C(=O)/C=C/CN(C)C)c23)ccc1Oc1ccn2ncnc2c1` (single isomer, unassigned) [Examples 122 and 123, second eluting isomer, (E)-1-(3-(4-((4-([1,2,4]triazolo[1,5-a]pyridin-7-yloxy)-3-methylphenyl)amino)pyrrolo[2,1-f][1,2,4]triazin-5-yl)-8-azabicyclo[3.2.1]octan-8-yl)-4-(dimethylamino)but-2-en-1-one], the IC50 in the assay with BaF3_EGFRWT cells is 1500 to 5000 nM; in the assay with BaF3_HER2WT cells, < 200 nM; in the assay with BaF3_HER2YVMA cells, 200 to 500 nM.

Take `C=CC(=O)N1CC2CCC1CC2c1ccn2ncnc(Nc3ccc(Oc4ccn5ncnc5c4)c(C)c3)c12` (single isomer, unassigned) [Examples 139 and 140, second eluting isomer, 1-(5-(4-((4-([1,2,4]triazolo[1,5-a]pyridin-7-yloxy)-3-methylphenyl)amino)pyrrolo[2,1-f][1,2,4]triazin-5-yl)-2-azabicyclo[2.2.2]octan-2-yl)prop-2-en-1-one]: the IC50 in the assay on BaF3_EGFRWT cells was 1500 to 5000 nM; with BaF3_HER2WT cells, 500 to 1500 nM; in the assay with BaF3_HER2YVMA cells it was 1500 to 5000 nM.

With `Cc1cc(Nc2ncnn3ccc(C4CCCN(C(=O)C(F)Cl)CC4)c23)ccc1Oc1ccn2ncnc2c1` (single isomer, unassigned) [Examples 145, 146, 147 and 148, third eluting isomer, 1-(4-(4-((4-([1,2,4]triazolo[1,5-a]pyridin-7-yloxy)-3-methylphenyl)amino)pyrrolo[2,1-f][1,2,4]triazin-5-yl)azepan-1-yl)-2-chloro-2-fluoroethan-1-one], the IC50 was 1500 to 5000 nM with BaF3_EGFRWT cells, 200 to 500 nM in the assay on BaF3_HER2WT cells and 500 to 1500 nM with BaF3_HER2YVMA cells.

Regarding `CN(C)C/C=C/C(=O)N1CC(c2ccn3ncnc(Nc4cnc(Oc5cccc(C(F)(F)F)c5)c(Cl)c4)c23)C1` [Example 90, (E)-1-(3-(4-((5-chloro-6-(3-(trifluoromethyl)phenoxy)pyridin-3-yl)amino)pyrrolo[2,1-f][1,2,4]triazin-5-yl)azetidin-1-yl)-4-(dimethylamino)but-2-en-1-one], the IC50 in the assay with BaF3_EGFRWT cells (72 h), in the assay on BaF3_HER2WT cells (72 h) and in the assay on BaF3_HER2YVMA cells (72 h) was 1500 to 5000 nM each time.

For `C=CC(=O)N1CCCC(c2ccn3ncnc(Nc4ccc(Oc5ccn6ncnc6c5)c(C)c4)c23)CC1` (single isomer, unassigned) [Examples 111 and 112, second eluting isomer, 1-(4-(4-((4-([1,2,4]triazolo[1,5-a]pyridin-7-yloxy)-3-methylphenyl)amino)pyrrolo-[2,1-f][1,2,4]triazin-5-yl)azepan-1-yl)prop-2-en-1-one], the IC50 was 1500 to 5000 nM in the assay on BaF3_EGFRWT cells and < 200 nM with BaF3_HER2YVMA cells.

Turning to `C=C(F)C(=O)N1CC=C(c2ccn3ncnc(Nc4ccc(Oc5ccn6ncnc6c5)c(C)c4)c23)CC1` [Example 26, 1-(4-(4-((4-([1,2,4]triazolo[1,5-a]pyridin-7-yloxy)-3-methylphenyl)amino)pyrrolo[2,1-f][1,2,4]triazin-5-yl)-3,6-dihydropyridin-1(2H)-yl)-2-fluoroprop-2-en-1-one], the figures for the IC50 in the assay with BaF3_EGFRWT cells (72 h), in the assay with BaF3_HER2WT cells (72 h) and in the assay with BaF3_HER2YVMA cells (72 h) were 1500 to 5000 nM, 200 to 500 nM and 1500 to 5000 nM, respectively.

`C=C(CN(C)C)C(=O)N1C2C=C(c3ccn4ncnc(Nc5ccc(Oc6ccn7ncnc7c6)c(C)c5)c34)CC1CC2` (stereo not drawn) [Example 30, 1-(3-(4-((4-([1,2,4]triazolo[1,5-a]pyridin-7-yloxy)-3-methylphenyl)amino)pyrrolo[2,1-f][1,2,4]triazin-5-yl)-8-azabicyclo[3.2.1]oct-2-en-8-yl)-2-((dimethylamino)methyl)prop-2-en-1-one acetate]: the figures for the IC50 with BaF3_EGFRWT cells (72 h), in the assay on BaF3_HER2WT cells (72 h) and in the assay with BaF3_HER2YVMA cells (72 h) were 1500 to 5000 nM, < 200 nM and < 200 nM, respectively.

With `C=CC(=O)N1CC2(CC(c3ccn4ncnc(Nc5ccc(Oc6ccn7ncnc7c6)c(C)c5)c34)C2)C1` [Example 17, 1-(6-(4-((4-([1,2,4]triazolo[1,5-a]pyridin-7-yloxy)-3-methylphenyl)amino)pyrrolo[2,1-f][1,2,4]triazin-5-yl)-2-azaspiro[3.3]heptan-2-yl)prop-2-en-1-one], the results for the IC50 in the assay on BaF3_EGFRWT cells (72 h), with BaF3_HER2WT cells (72 h) and in the assay with BaF3_HER2YVMA cells (72 h) were 1500 to 5000 nM, < 200 nM and < 200 nM, respectively.

For `C=CC(=O)N1C2CCC1CN(c1ccn3ncnc(Nc4ccc(Oc5ccn6ncnc6c5)c(C)c4)c13)C2` [Example 46, 1-(3-(4-((4-([1,2,4]triazolo[1,5-a]pyridin-7-yloxy)-3-methylphenyl)amino)pyrrolo[2,1-f][1,2,4]triazin-5-yl)-3,8-diazabicyclo[3.2.1]octan-8-yl)prop-2-en-1-one], the IC50 with BaF3_EGFRWT cells (72 h) is 200 to 500 nM; in the assay with BaF3_HER2WT cells (72 h), < 200 nM; in the assay with BaF3_HER2YVMA cells (72 h), < 200 nM.

In the case of `Cc1cc(Nc2ncnn3ccc(C4CCN(C(=O)[C@@H](F)Cl)CC4)c23)ccc1Oc1ccn2ncnc2c1` (single isomer, unassigned) [Examples 173 and 174, second eluting isomer], the IC50 is 1500 to 5000 nM with BaF3_EGFRWT cells (72 h), < 200 nM with BaF3_HER2WT cells (72 h) and < 200 nM in the assay with BaF3_HER2YVMA cells (72 h).

For the compound `Cc1cc(Nc2ncnn3ccc(C4CCCN(C(=O)/C=C/CN(C)C)CC4)c23)ccc1Oc1ccn2ncnc2c1` (single isomer, unassigned) [Examples 109 and 110, second eluting isomer, (E)-1-(4-(4-((4-([1,2,4]triazolo[1,5-a]pyridin-7-yloxy)-3-methylphenyl)amino)pyrrolo[2,1-f][1,2,4]triazin-5-yl)azepan-1-yl)-4-(dimethylamino)but-2-en-1-one], the IC50 in the assay with BaF3_EGFRWT cells is 1500 to 5000 nM.

For `COC1CN(C/C=C/C(=O)N2CC(c3ccn4ncnc(Nc5ccc(Oc6ccn7ncnc7c6)c(C)c5)c34)C2)C1` [Example 39, (E)-1-(3-(4-((4-([1,2,4]triazolo[1,5-a]pyridin-7-yloxy)-3-methylphenyl)amino)pyrrolo[2,1-f][1,2,4]triazin-5-yl)azetidin-1-yl)-4-(3-methoxyazetidin-1-yl)but-2-en-1-one], the IC50 was 1500 to 5000 nM with BaF3_EGFRWT cells (72 h) and < 200 nM with BaF3_HER2WT cells (72 h).

Regarding `Cc1cc(Nc2ncnn3ccc(C4CCN(C(=O)/C=C/CN(C)C)CC4)c23)ccc1Oc1ccn2ncnc2c1` [Example 21, (E)-1-(4-(4-((4-([1,2,4]triazolo[1,5-a]pyridin-7-yloxy)-3-methylphenyl)amino)pyrrolo[2,1-f][1,2,4]triazin-5-yl)piperidin-1-yl)-4-(dimethylamino)but-2-en-1-one], the IC50 in the assay with BaF3_EGFRWT cells (72 h) fell in the range of 1500 to 5000 nM.
